Among the data in the RepoRT retention time repository are LC retention time values, retold here.

A short description of the data set: Waters ACQUITY UPLC BEH C18, 100 × 2.1 mm, 1.7 µm, 40 °C, 0.3 to 0.4 mL/min, estimated dead time 0.63 min; A: water + 0.1% formic acid; B: methanol + 0.1% formic acid; gradient (min/%B) 0/0.5 0.1/0.5 10/80 10.1/99.5 12/99.5. To be noted: stereoisomer not certain.
As to `O=c1c(OC2OCC(O)C(O)C2O)c(-c2ccc(O)c(O)c2)oc2cc(O)cc(O)c12` (configuration not stated), the LC retention time was 4.17 min.
As for `C=CC1C(OC2OC(CO)C(O)C(O)C2O)OC=C(C(=O)O)C1CC1NCCc2c1[nH]c1ccccc21` (configuration not stated), the figure is 3.94 min; as for `O=c1cc(-c2ccc(O)c(O)c2)oc2c(C3OC(CO)C(O)C(O)C3O)c(O)c(C3OC(CO)C(O)C(O)C3O)c(O)c12` (configuration not stated), 3.1 min.
With `COc1cc(CCN)ccc1O` the figure was 2.06 min; with `c1ccc2c(c1)CN1CCCC1=N2`, 2.8 min.
Consider `CC1CCC(C(C)C2CCC3C4CC(=O)C5CC(O)CCC5(C)C4CCC23C)=NC1` (configuration not stated), for which the LC retention time was 4.95 min.
`O=C1CC2OCC=C3CN4CCC56c7ccccc7N1C5C2C3CC46` (configuration not stated): the LC retention time was 3.46 min.
On to `O=C(C=CC=Cc1ccc2c(c1)OCO2)N1CCCCC1`, for which the LC retention time is 7.84 min.
In the case of `Cc1ccc([N+](=O)[O-])cc1N`, the LC retention time was 2.34 min.
For the molecule `COC(=O)C12CC3CC(C(C)O)C1N(CCc1c2[nH]c2ccc(OC)cc12)C3` (configuration not stated), the LC retention time is 4.61 min.
Consider `CCC(C)C(NCC1(O)OC(CO)C(O)C1O)C(=O)O` (configuration not stated), for which the LC retention time was 1.98 min.
As for `CCC=CCC1C(=O)C=CC1CCCCCCCC(=O)O` (configuration not stated), the LC retention time was 9.37 min.
As for `O=c1cc[nH]c2ccccc12`, the figure is 2.93 min.
With `CCOC1OC(=O)c2cc3ccc4c(c3c(-c3ccc5c(c3)OCO5)c21)OCO4` (configuration not stated) the figure was 8.82 min; with `CC(C)=CCCC(C)(OC1OC(CO)C(O)C(O)C1O)C1CCC2(C)C1C(O)CC1C3(C)CCC(O)C(C)(C)C3C(OC3OC(CO)C(O)C(O)C3O)CC12C` (configuration not stated), 4.8 min.
Regarding `CC(C)=CCc1c(O)cc(O)c2c1OCC(c1ccc(O)cc1O)C2=O` (configuration not stated), the LC retention time was 7.04 min.
As for `COc1cc2cc3c4cc(OC)c(OC)cc4cc[n+]3c(C)c2cc1OC`, the figure is 5.27 min; as for `CC1(C)CC(=O)C2(C)CCC3(C)C(=CCC4C5(C)CCC(OC6OC(C(=O)O)C(O)C(O)C6OC6OC(CO)C(O)C(O)C6O)C(C)(CO)C5CCC43C)C2C1` (configuration not stated), 7.84 min; as for `O=c1c(O)c(-c2ccc(O)c(O)c2)oc2c(OC3OC(CO)C(O)C(O)C3O)c(O)cc(O)c12` (configuration not stated), 4.64 min.
For the molecule `CC(C)C(=O)OC(CC(=O)[O-])C[N+](C)(C)C` (configuration not stated), the LC retention time is 2.48 min.
For `COc1cc2c(cc1O)CC1c3c(cc(O)c(OC)c3-2)CCN1C` (configuration not stated), the LC retention time was 3.35 min.
For the molecule `CCC1C2CC3C4N(C)c5ccccc5C45CC(C2C5O)N3C1O` (configuration not stated), the LC retention time was 4.13 min.
For `O=C(O)C=Cc1ccc(O)cc1`, the LC retention time was 2.71 min.
As for `CCCCCCC(O)CC=CCCCCCCCC(=O)O` (configuration not stated), the figure is 10.1 min.
Consider `CCCCCCCC(O)SCC(NC(=O)CCC(N)C(=O)O)C(=O)NCC(=O)O` (configuration not stated), for which the LC retention time was 4.58 min.
As to `COc1ccc(-c2coc3cc(OC4OC(COC(=O)CC5CCNCC5)C(O)C(O)C4O)ccc3c2=O)cc1` (configuration not stated), the LC retention time is 4.67 min.
With `OCC1OC(OC2C(Oc3cc4c(O)cc(O)cc4[o+]c3-c3ccc(O)c(O)c3)OC(CO)C(O)C2O)C(O)C(O)C1O` (configuration not stated) the figure was 2.77 min; with `COc1c2c(cc3c(-c4ccc5c(c4)OCO5)c4c(cc13)C(=O)OC4)OCO2`, 8.93 min; with `O=C(O)C1C(O)CCC2CN3CCc4c([nH]c5ccccc45)C3CC21` (configuration not stated), 3.82 min.
As for `COc1ccc(C2CC(=O)c3c(O)cc(OC4OC(COC5OC(C)C(O)C(O)C5O)C(O)C(O)C4O)cc3O2)cc1O` (configuration not stated), the figure is 4.51 min; as for `C=CC1C(OC2OC(CO)C(O)C(O)C2O)OC=C2C(=O)N3CCc4c([nH]c5ccccc45)C3CC21` (configuration not stated), 5.56 min; as for `COC(=O)C1CC23CCCN4CCC5(c6ccccc6NC15C2C)C43` (configuration not stated), 4.24 min.
In the case of `O=C1CC(c2ccc(O)cc2)Oc2c1c(O)cc(O)c2C1OC(CO)C(O)C(O)C1O` (configuration not stated), the LC retention time was 3.04 min.
With `CC1OC(OC2C(O)COC(OC3C(C)OC(OC4C(OC(=O)C56CCC(C)(C)CC5C5=CCC7C8(C)CCC(OC9OC(CO)C(O)C(O)C9O)C(C)(CO)C8CCC7(C)C5(C)CC6O)OCC(O)C4O)C(O)C3O)C2O)C(O)C(O)C1O` (configuration not stated) the figure was 5.79 min.
Consider `O=c1cc(-c2ccc(O)c(O)c2)oc2cc(O)c(C3OC(CO)C(O)C(O)C3O)c(O)c12` (configuration not stated), for which the LC retention time is 3.59 min.
With `CC1OC(Oc2c(-c3ccc(O)c(O)c3)oc3cc(O)cc(O)c3c2=O)C(OC2OC(COC(=O)C=Cc3ccc(O)cc3)C(O)C(O)C2O)C(O)C1O` (configuration not stated) the figure was 4.67 min; with `CC=C1CN(C)C2CC3(C(=O)N(OC)c4ccccc43)C3CC1C2CO3` (configuration not stated), 4.63 min; with `O=C(O)CCSCCC(=O)O`, 2.06 min.
Consider `CC1OC(OC2CCC3(C)C(CCC4(C)C3CC=C3C5CC(C)(C)CCC5(C(=O)O)CCC34C)C2(C)CO)C(O)C(OC2OC(CO)C(OC3OC(CO)C(O)C(O)C3O)C(O)C2O)C1O` (configuration not stated), for which the LC retention time is 6.92 min.
In the case of `O=C(O)C=C(CC(=O)O)C(=O)O`, the LC retention time was 1.61 min.
As for `CC1OC(OC2C(Oc3cc(O)c4c(c3)OC(c3ccc(O)cc3)CC4=O)OC(CO)C(O)C2O)C(O)C(O)C1O` (configuration not stated), the figure is 4.38 min.
With `CC1CCC2(OC1O)OC1CC3C4CC=C5CC(OC6OC(CO)C(OC7OC(C)C(O)C(O)C7O)C(O)C6OC6OC(C)C(O)C(O)C6O)CCC5(C)C4CCC3(C)C1C2C` (configuration not stated), the LC retention time is 5.71 min.
Take `CC1OC(Oc2cc(O)c3c(=O)c(OC4OC(C)C(O)C(O)C4O)c(-c4ccc(O)c(O)c4)oc3c2)C(O)C(O)C1O` (configuration not stated): the LC retention time was 3.67 min.
With `O=C1CC(c2ccc(OC3OC(CO)C(O)C(O)C3O)cc2)Oc2cc(O)ccc21` (configuration not stated), the LC retention time is 4.08 min.
Regarding `CC(C)=CCCC(C)(OC1OC(CO)C(O)C(O)C1O)C1CCC2(C)C1C(O)CC1C3(C)CCC(OC4OC(CO)C(O)C(O)C4O)C(C)(C)C3CCC12C` (configuration not stated), the LC retention time was 7.66 min.
On to `O=c1cc(-c2ccc(O)cc2)oc2c(C3OC(CO)C(O)C3O)c(O)c(C3OC(CO)C(O)C(O)C3O)c(O)c12` (configuration not stated), for which the LC retention time is 3.55 min.
Turning to `O=C(O)CC(=O)OCC1OC(Oc2cc(O)c3c(=O)c(-c4ccc(O)cc4)coc3c2)C(O)C(O)C1O` (configuration not stated), the LC retention time is 4.89 min.
With `COc1cc2c(cc1OC)C(C)=NCC2`, the LC retention time was 2.93 min.
Turning to `NCCCCNC(=O)c1ccccc1`, the LC retention time is 2.71 min.
With `CC1CCC2C(C)C3C(CC4C5CC=C6CC(OC7OC(CO)C(O)C(OC8OC(CO)C(O)C(O)C8O)C7O)CCC6(C)C5CCC43C)N2C1` (configuration not stated) the figure was 4.65 min; with `CCC1(O)C(=O)OCc2c1cc1n(c2=O)Cc2cc3c([N+](=O)[O-])cccc3nc2-1` (configuration not stated), 5.87 min.
As for `CN1CCCCC1c1ccc(-c2cccnc2)nc1` (configuration not stated), the figure is 2.37 min; as for `CC1CCC2C(C)C3C(CC4C5CC=C6CC(OC7OC(CO)C(OC8OC(C)C(O)C(O)C8O)C(O)C7OC7OC(C)C(O)C(O)C7O)CCC6(C)C5CCC43C)N2C1` (configuration not stated), 5.01 min.
With `COc1cc(-c2cc(=O)c3c(O)cc(OC4OC(CO)C(O)C(O)C4OC4OC(C)C(O)C(O)C4O)cc3o2)cc(OC)c1O` (configuration not stated) the figure was 4.36 min; with `CC=C1CN(C)C2Cc3c([nH]c4ccccc34)C(c3cc4[nH]c5c(c4cc3OC)CCN3CC4CC(CC)C3C5(C(=O)OC)C4)CC1C2C(=O)OC` (configuration not stated), 4.94 min; with `CC(=O)OC1CCC2(C)C(=CCC3C2CCC2(C)C3CC3OC4(CCC(C)CN4)C(C)C32)C1` (configuration not stated), 8.16 min.
In the case of `OCC1OC(Oc2ccc(O)cc2)C(O)C(O)C1O` (configuration not stated), the LC retention time was 1.88 min.
With `CC1(C)CCC2(C(=O)O)CCC3(C)C(=CCC4C5(C)CC(O)C(OC6OC(CO)C(OC7OC(CO)C(O)C(O)C7O)C(O)C6O)C(C)(CO)C5CCC43C)C2C1` (configuration not stated) the figure was 7.01 min.
Consider `COc1cc(C=CC(=O)OCC2OC(OC3C(c4c(O)cc5oc(-c6ccc(O)cc6)cc(=O)c5c4O)OC(CO)C(O)C3O)C(O)C(O)C2O)ccc1O` (configuration not stated), for which the LC retention time is 4.21 min.
For `O=C1c2c(O)cc(O)cc2OC(c2ccc(O)c(O)c2)C1O` (configuration not stated), the LC retention time was 4.27 min.
With `CSCC(NC(=O)CCC(N)C(=O)O)C(=O)O` (configuration not stated) the figure was 2.02 min; with `O=C(O)C1OC(Oc2cc3oc(-c4ccccc4)cc(=O)c3c(O)c2O)C(O)C(O)C1O` (configuration not stated), 4.49 min; with `COc1cc(-c2[o+]c3cc(O)cc(O)c3cc2OC2OC(CO)C(O)C(O)C2O)ccc1O` (configuration not stated), 3.15 min.
As for `COc1cc(C=CNC(=O)C=Cc2ccc(O)c(OC)c2)ccc1O`, the figure is 4.38 min; as for `Oc1ccc(C2Oc3cc(O)cc(O)c3CC2O)cc1` (configuration not stated), 4.91 min.
As for `CSCC(NC(=O)CCC(NCC1(O)OCC(O)C(O)C1O)C(=O)O)C(=O)O` (configuration not stated), the figure is 2.12 min.
Regarding `COc1cc(C=CC(=O)OCC2OC(OC3C(c4c(O)cc5oc(-c6ccc(O)c(OC)c6)cc(=O)c5c4O)OC(CO)C(O)C3O)C(O)C(O)C2O)ccc1O` (configuration not stated), the LC retention time was 4.19 min.
As for `CC=C1CN2C3CC1C(CO)C2Cc1c3[nH]c2cc(OC)ccc12` (configuration not stated), the LC retention time was 3.68 min.
`COc1ccc2cc1Oc1ccc(cc1)CC1c3cc(c(OC)cc3CCN1C)Oc1c(OC)c(OC)cc3c1C(C2)N(C)CC3` (configuration not stated): the LC retention time was 4.19 min.
With `CC1OC(OCC2OC(Oc3c(-c4ccccc4O)oc4cc(O)cc(O)c4c3=O)C(O)C(O)C2O)C(O)C(O)C1O` (configuration not stated) the figure was 4.1 min; with `COc1cc(C(O)C(COC2OC(CO)C(O)C(O)C2O)Oc2c(OC)cc(-c3cc(=O)c4c(O)cc(O)cc4o3)cc2OC)ccc1O` (configuration not stated), 4.57 min; with `CC1(C)CCC2(C(=O)O)CCC3(C)C(=CCC4C5(C)CC(O)C(O)C(C)(C)C5CCC43C)C2C1` (configuration not stated), 9.77 min.
